Common to all, as to assay type: cell-based
Assay [1] concerns the target T1, RIPK1 (Homo sapiens, UniProt Q13546, S161A).
T1 construct: HA-tagged hRIPK1 S161A reconstituted in RIPK1-deficient Jurkat cells
T1 sequence (Q13546 1-671 S161A): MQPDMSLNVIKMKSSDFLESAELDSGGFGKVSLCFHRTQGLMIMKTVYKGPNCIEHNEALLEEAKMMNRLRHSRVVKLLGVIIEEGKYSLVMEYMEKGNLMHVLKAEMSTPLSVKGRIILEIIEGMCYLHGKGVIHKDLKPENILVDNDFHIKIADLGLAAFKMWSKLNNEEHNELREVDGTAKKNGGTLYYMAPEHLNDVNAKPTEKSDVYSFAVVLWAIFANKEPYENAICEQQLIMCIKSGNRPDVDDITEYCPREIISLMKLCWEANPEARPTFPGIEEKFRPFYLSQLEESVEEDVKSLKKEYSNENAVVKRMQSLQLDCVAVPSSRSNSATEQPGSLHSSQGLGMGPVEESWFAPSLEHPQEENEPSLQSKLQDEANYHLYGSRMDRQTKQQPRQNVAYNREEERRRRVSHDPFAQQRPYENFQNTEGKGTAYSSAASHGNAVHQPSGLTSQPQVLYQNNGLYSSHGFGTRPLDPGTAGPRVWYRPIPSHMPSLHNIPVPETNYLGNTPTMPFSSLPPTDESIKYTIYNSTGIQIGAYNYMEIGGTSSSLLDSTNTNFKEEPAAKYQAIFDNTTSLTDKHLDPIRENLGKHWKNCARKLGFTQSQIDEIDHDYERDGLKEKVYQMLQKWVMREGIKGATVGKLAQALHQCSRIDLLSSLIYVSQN
The experiment in a line: CETSA; p-S166 autophosphorylation blot.

The target of assay [2] is T2, RIPK1 (Mus musculus, UniProt Q60855).
T2 construct: endogenous RIPK1 (MEFs)
T2 sequence (Q60855 1-656): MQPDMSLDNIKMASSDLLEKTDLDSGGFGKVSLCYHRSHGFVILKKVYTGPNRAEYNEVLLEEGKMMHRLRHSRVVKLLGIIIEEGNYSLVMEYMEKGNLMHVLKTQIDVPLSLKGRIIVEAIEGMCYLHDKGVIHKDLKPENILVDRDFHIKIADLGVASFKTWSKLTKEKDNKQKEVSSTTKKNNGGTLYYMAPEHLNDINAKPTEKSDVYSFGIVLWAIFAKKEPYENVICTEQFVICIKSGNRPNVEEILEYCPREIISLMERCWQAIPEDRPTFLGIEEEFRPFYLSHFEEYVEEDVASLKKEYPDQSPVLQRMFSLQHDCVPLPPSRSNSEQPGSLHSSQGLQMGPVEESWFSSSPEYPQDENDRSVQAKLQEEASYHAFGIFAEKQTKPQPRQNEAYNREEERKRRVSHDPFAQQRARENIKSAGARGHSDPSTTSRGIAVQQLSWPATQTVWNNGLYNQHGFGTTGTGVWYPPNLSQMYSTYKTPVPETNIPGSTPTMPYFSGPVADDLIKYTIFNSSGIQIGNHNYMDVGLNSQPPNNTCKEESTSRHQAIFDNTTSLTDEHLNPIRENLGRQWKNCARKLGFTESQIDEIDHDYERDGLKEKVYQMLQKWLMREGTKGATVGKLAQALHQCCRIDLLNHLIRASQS
Put plainly: CETSA in MEFs; p-S166 blot of mRIPK1-FKBP in L929 cells.

The target in assay [3] is T3, RIPK1 (Homo sapiens, UniProt Q13546, L159V/D180S).
T3 construct: residues 1–330, Flag-tagged, in 293T cells
T3 sequence (Q13546 1-330 L159V/D180S): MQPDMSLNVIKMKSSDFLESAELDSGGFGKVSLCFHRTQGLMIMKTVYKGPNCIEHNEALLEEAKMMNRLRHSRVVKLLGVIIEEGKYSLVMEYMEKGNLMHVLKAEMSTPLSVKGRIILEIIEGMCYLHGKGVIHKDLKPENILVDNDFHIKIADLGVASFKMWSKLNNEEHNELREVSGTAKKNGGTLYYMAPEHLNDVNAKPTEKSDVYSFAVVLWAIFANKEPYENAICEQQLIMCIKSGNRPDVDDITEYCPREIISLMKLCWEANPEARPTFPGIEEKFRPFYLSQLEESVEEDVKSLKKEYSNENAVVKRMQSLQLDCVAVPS
Put plainly: p-S166 autophosphorylation blot, dose response.

`Cc1ccc(C2CC(=O)NC(SCC(=O)Nc3nccs3)=C2C#N)cc1` (stereo not drawn) [Nec-34]: the “CETSA; p-S166 autophosphorylation blot” value on RIPK1 [1] was “Nec-34 stabilized reconstituted S161A mutant RIPK1 as well as WT-RIPK1 in the soluble fraction under elevated temperatures”. In addition, on RIPK1 [2], the “CETSA in MEFs; p-S166 blot of mRIPK1-FKBP in L929 cells” value is reported as “Nec-34 is able to bind endogenous RIPK1 in situ to increase its thermo-resistance”. For the same molecule, the “p-S166 autophosphorylation blot, dose response” value at RIPK1 [3] was “Nec-34 was more potent in inhibiting L159V/D180S hRIPK1 than WT-hRIPK1”.

The record behind these values is PMC8169668, “Discovery of a cooperative mode of inhibiting RIPK1 kinase” (Cell Discovery, 2021).
